Laboratory results: patent US8603537B2, “Prasugrel containing quickly released stable oral pharmaceutical compositions” (Egis Pharmaceuticals PLC, priority 2012, dated 2013)
Structures can show the parent of a compound that is named as a salt. Blank lines part the entries; values can stand above or below the compound they belong to.

Tests used:
[1] = EP 2415 774; cited from earlier work
[2] = Solubility of prasugrel base and prasugrel HCl at different pH values; type: physicochemical
Source text: According to the examples of WO 2008/073759 prasugrel containing pharmaceutical compositions are stabilized by storing the tablets in air-and waterproof packaging. According to WO 2006/135605 the decomposition of prasugrel containing compositions can be reduced in air- and moisture-proof blister filled with inert gas. […] This fact is substantiated by the following Table. It can be seen from the above Table that the solubility of the hydrochloric acid salt of prasugrel is much higher than that of the prasugrel base even in the pH range between 4.5 and 6.8

platelet aggregation = details: administered in the same dose, EP 1 298 132 B1; cited from earlier work
[3] = Storage stability of prasugrel base, related substances by HPLC; type: physicochemical
Source text: Contrary to the teaching of WO 2011/098536a stable product of appropriate bioavailability is obtained.

[4] = 25 ± 2° C. 60 ± 5% RH, 2 months
[5] = 25 ± 2° C. 60 ± 5% RH, 3 months
[6] = 25 ± 2° C. 60 ± 5% RH, 6 months
[7] = 40 ± 2° C. 75 ± 5% RH, 2 months
[8] = 40 ± 2° C. 75 ± 5% RH, 3 months
[9] = 40 ± 2° C. 75 ± 5% RH, 6 months

Structure (SMILES): CC(=O)Oc1cc2c(s1)CCN(C(C(=O)C1CC1)c1ccccc1F)C2 (centres unmarked) [hydrogen bromide salt]
Solubility in 0.1N hydrochloric acid compared with the hydrochloric acid salt [1]: more readily soluble

Solubility ([2]; pH 1): 7.8 g/100 ml | Solubility ([2]; pH 4.5): 0.032 g/100 ml | Solubility ([2]; pH 6.8): 0.007 g/100 ml
Structure (SMILES): CC(=O)Oc1cc2c(s1)CCN(C(C(=O)C1CC1)c1ccccc1F)C2 (centres unmarked) [prasugrel HCl]
Platelet aggregation inhibitory effect compared with the base (platelet aggregation): almost twice higher

Solubility ([2]; Water): 0.0009 g/100 ml | Solubility ([2]; pH 1): 2.8 g/100 ml | Solubility ([2]; pH 4.5): 0.0035 g/100 ml | Solubility ([2]; pH 6.8): 0.001 g/100 ml | Related substances by HPLC: Any identified impurity, each ([3]; 25 ± 2° C. 60 ± 5% RH, 1 month): 0.05% | Related substances by HPLC: Any unidentified impurity ([3]; 25 ± 2° C. 60 ± 5% RH, 1 month): <0.05% | Related substances by HPLC: Dezacetyl impurity ([3]; 25 ± 2° C. 60 ± 5% RH, 1 month): <0.05% | Related substances by HPLC: Sum of impurities ([3]; 25 ± 2° C. 60 ± 5% RH, 1 month): 0.05% | Related substances by HPLC: Any identified impurity, each [3, 4]: 0.07% | Related substances by HPLC: Any unidentified impurity [3, 4]: <0.05% | Related substances by HPLC: Dezacetyl impurity [3, 4]: <0.05% | Related substances by HPLC: Sum of impurities [3, 4]: 0.07% | Related substances by HPLC: Any identified impurity, each [3, 5]: <0.05% | Related substances by HPLC: Any unidentified impurity [3, 5]: <0.05% | Related substances by HPLC: Dezacetyl impurity [3, 5]: <0.05% | Related substances by HPLC: Sum of impurities [3, 5]: <0.05% | Related substances by HPLC: Any identified impurity, each [3, 6]: <0.05% | Related substances by HPLC: Any unidentified impurity [3, 6]: <0.05% | Related substances by HPLC: Dezacetyl impurity [3, 6]: <0.05% | Related substances by HPLC: Sum of impurities [3, 6]: <0.05% | Related substances by HPLC: Any identified impurity, each ([3]; 25 ± 2° C. 60 ± 5% RH, Initial): <0.05% | Related substances by HPLC: Any unidentified impurity ([3]; 25 ± 2° C. 60 ± 5% RH, Initial): <0.05% | Related substances by HPLC: Dezacetyl impurity ([3]; 25 ± 2° C. 60 ± 5% RH, Initial): <0.05% | Related substances by HPLC: Sum of impurities ([3]; 25 ± 2° C. 60 ± 5% RH, Initial): <0.05% | Related substances by HPLC: Any identified impurity, each ([3]; 40 ± 2° C. 75 ± 5% RH, 1 month): <0.05% | Related substances by HPLC: Any unidentified impurity ([3]; 40 ± 2° C. 75 ± 5% RH, 1 month): <0.05% | Related substances by HPLC: Dezacetyl impurity ([3]; 40 ± 2° C. 75 ± 5% RH, 1 month): <0.05% | Related substances by HPLC: Sum of impurities ([3]; 40 ± 2° C. 75 ± 5% RH, 1 month): <0.05% | Related substances by HPLC: Any identified impurity, each [3, 7]: 0.05% | Related substances by HPLC: Any unidentified impurity [3, 7]: <0.05% | Related substances by HPLC: Dezacetyl impurity [3, 7]: <0.05% | Related substances by HPLC: Sum of impurities [3, 7]: 0.05% | Related substances by HPLC: Any identified impurity, each [3, 8]: <0.05% | Related substances by HPLC: Any unidentified impurity [3, 8]: <0.05% | Related substances by HPLC: Dezacetyl impurity [3, 8]: <0.05% | Related substances by HPLC: Sum of impurities [3, 8]: <0.05% | Related substances by HPLC: Any identified impurity, each [3, 9]: <0.05% | Related substances by HPLC: Any unidentified impurity [3, 9]: <0.05% | Related substances by HPLC: Dezacetyl impurity [3, 9]: <0.05% | Related substances by HPLC: Sum of impurities [3, 9]: <0.05% | Related substances by HPLC: Any identified impurity, each ([3]; 40 ± 2° C. 75 ± 5% RH, Initial): <0.05% | Related substances by HPLC: Any unidentified impurity ([3]; 40 ± 2° C. 75 ± 5% RH, Initial): <0.05% | Related substances by HPLC: Dezacetyl impurity ([3]; 40 ± 2° C. 75 ± 5% RH, Initial): <0.05% | Related substances by HPLC: Sum of impurities ([3]; 40 ± 2° C. 75 ± 5% RH, Initial): <0.05% | Stability of the base per se on storage ([3]; storage period of 6 months): remains stable
Structure (SMILES): CC(=O)Oc1cc2c(s1)CCN(C(C(=O)C1CC1)c1ccccc1F)C2 (centres unmarked) [prasugrel base, 5-/2-cyclopropyl-1-(2-fluoro-phenyl)-2-oxoethyl/-4,5,6,7-tetrahydrothieno/3.2-c/-pyridine-2-yl-acetate]
